From ChEMBL document CHEMBL4428125, “8-Substituted 1,3-dimethyltetrahydropyrazino[2,1-f]purinediones: Water-soluble adenosine receptor antagonists and monoamine oxidase B inhibitors” (Bioorg Med Chem, 2016)
Converted amounts (≈) assume the structure as drawn.

What was measured:
Adenosine receptor A2a = Adenosine receptor A2a (Rattus norvegicus, UniProt P30543); assay: Displacement of [3H]MSX from A2A receptor in rat brain striatum membranes measured after 30 mins by liquid scintillation counting method; format: cell membranes
Chain of Adenosine receptor A2a (P30543 whole entry): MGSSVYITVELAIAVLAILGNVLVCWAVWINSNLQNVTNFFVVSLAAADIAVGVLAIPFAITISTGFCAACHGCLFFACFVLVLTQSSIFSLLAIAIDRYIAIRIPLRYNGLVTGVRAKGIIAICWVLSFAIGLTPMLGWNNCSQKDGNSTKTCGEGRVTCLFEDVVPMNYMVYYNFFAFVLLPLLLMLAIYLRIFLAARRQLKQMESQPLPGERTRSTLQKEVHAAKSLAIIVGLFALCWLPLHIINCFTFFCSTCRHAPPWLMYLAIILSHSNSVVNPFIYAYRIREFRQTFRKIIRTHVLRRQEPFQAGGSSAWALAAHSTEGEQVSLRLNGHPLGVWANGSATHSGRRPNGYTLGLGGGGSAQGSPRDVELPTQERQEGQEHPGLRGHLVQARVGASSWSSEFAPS

Adenosine receptor A1 [1] = biological target: T1, Adenosine receptor A1 (Rattus norvegicus, UniProt P25099); assay: Displacement of [3H]CCPA from A1 receptor in rat brain cortex membranes by liquid scintillation counting method; format: cell membranes
T1 sequence (P25099 whole entry): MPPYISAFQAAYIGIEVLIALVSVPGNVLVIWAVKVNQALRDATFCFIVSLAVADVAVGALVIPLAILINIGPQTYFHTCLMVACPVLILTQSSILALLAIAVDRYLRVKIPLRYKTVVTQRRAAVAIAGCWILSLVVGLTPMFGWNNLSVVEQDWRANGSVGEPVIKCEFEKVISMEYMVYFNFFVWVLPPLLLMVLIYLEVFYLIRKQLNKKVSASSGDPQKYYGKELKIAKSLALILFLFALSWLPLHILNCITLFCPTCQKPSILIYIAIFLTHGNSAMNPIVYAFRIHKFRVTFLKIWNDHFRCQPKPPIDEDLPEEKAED

[2] = biological target: T2, Amine oxidase [flavin-containing] B (Homo sapiens, UniProt P27338); assay: Inhibition of recombinant human MAO-B expressed in baculovirus infected BTI insect cells preincubated for 30 mins followed by addition of p-tyramine as substrate measured over 45 mins by Amplex Red MAO assay
T2 sequence (P27338 whole entry): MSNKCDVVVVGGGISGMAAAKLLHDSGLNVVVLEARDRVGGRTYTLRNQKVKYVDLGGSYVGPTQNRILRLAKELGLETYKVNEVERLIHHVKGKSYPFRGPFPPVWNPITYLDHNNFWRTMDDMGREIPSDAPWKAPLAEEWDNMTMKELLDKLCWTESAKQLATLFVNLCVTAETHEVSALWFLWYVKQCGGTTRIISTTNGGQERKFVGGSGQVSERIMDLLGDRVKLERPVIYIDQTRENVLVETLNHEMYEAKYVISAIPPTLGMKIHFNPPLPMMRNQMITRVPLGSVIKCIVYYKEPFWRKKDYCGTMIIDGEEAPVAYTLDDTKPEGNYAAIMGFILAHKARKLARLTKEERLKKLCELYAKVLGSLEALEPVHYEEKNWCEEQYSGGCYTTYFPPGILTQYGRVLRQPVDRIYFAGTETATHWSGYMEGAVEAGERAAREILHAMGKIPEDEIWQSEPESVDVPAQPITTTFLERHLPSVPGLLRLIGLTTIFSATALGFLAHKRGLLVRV

Adenosine receptor A1 [3] = biological target: T3, Adenosine receptor A1 (Homo sapiens, UniProt P30542); assay: Displacement of [3H]CCPA from human A1 receptor expressed in CHO cell membrane by liquid scintillation counting method; format: cell membranes
T3 sequence (P30542 whole entry): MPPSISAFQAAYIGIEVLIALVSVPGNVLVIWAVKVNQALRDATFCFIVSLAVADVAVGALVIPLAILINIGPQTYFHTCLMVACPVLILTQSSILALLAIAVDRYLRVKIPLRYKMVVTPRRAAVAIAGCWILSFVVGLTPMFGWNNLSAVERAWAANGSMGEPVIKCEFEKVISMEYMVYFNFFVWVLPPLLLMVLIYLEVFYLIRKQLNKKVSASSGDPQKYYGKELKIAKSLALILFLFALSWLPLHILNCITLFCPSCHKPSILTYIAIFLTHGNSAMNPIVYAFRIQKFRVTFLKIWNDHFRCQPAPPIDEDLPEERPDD

[4] = biological target: T4, Adenosine receptor A3 (Homo sapiens) (UniProt P0DMS8); assay: Displacement of [3H]PSB-11 from human A3 receptor expressed in CHO cell membrane at 10 uM by liquid scintillation counting method relative to control relative to control; format: cell membranes
T4 sequence (whole entry): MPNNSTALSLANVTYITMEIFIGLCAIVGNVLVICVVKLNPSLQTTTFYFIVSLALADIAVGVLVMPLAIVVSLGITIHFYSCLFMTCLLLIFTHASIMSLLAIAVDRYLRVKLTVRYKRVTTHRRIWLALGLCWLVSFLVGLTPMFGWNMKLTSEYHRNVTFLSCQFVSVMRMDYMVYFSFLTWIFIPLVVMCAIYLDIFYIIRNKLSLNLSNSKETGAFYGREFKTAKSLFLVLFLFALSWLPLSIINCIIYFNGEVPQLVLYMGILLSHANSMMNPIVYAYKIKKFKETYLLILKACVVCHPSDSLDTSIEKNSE

Adenosine receptor A2b = biological target: T5, Adenosine receptor A2b (Homo sapiens, UniProt P29275); assay: Displacement of [3H]PSB-603 from human A2B receptor expressed in CHO cell membrane; format: cell membranes
T5 sequence (P29275 whole entry): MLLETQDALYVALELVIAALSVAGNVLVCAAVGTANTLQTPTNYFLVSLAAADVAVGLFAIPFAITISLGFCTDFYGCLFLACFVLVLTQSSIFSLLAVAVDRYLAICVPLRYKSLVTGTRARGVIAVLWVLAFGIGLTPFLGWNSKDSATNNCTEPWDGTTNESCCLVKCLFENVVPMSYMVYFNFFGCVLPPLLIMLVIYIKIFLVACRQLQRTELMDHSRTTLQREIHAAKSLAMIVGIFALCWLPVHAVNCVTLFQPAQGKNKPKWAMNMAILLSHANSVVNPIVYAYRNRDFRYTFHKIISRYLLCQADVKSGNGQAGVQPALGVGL

Adenosine receptor A3 = biological target: T6, Adenosine receptor A3 (Homo sapiens, UniProt P0DMS8); assay: Displacement of [3H]PSB-11 from human A3 receptor expressed in CHO cell membrane by liquid scintillation counting method relative to control; format: cell membranes
T6 sequence (P0DMS8 whole entry): T4 sequence (whole entry)

[5] = biological target: T7, Adenosine receptor A2b (Homo sapiens) (UniProt P29275); assay: Displacement of [3H]PSB-603 from human A2B receptor expressed in CHO cell membrane at 1 uM relative to control; format: cell membranes
T7 sequence (whole entry): T5 sequence (P29275 whole entry)

[6] = biological target: T8, Amine oxidase [flavin-containing] A (Homo sapiens, UniProt P21397); assay: Inhibition of recombinant human MAO-A expressed in baculovirus infected BTI insect cells preincubated for 30 mins followed by addition of p-tyramine as substrate measured over 45 mins by Amplex Red MAO assay
T8 sequence (P21397 whole entry): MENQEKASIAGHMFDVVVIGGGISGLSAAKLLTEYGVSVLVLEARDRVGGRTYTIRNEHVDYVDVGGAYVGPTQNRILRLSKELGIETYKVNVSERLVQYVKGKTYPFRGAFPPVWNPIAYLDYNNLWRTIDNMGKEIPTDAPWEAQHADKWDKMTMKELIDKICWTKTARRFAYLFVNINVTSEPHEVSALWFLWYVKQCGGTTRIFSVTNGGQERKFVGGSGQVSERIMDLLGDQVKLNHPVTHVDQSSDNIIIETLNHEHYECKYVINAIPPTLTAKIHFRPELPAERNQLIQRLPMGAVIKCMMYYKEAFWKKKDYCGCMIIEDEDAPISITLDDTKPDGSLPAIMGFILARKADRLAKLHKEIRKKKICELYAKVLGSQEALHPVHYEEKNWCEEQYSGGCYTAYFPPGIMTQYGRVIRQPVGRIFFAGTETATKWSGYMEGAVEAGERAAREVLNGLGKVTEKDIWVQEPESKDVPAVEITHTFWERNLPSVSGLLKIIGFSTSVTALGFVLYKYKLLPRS

[7] = biological target: T9, Adenosine receptor A1 (Rattus norvegicus) (UniProt P25099); assay: Displacement of [3H]CCPA from A1 receptor in rat brain cortex membranes at 1.5 uM by liquid scintillation counting method; format: cell membranes
T9 sequence (whole entry): T1 sequence (P25099 whole entry)

[8] = biological target: T2, Amine oxidase [flavin-containing] B; assay: Inhibition of recombinant human MAO-B expressed in baculovirus infected BTI insect cells at 10 uM preincubated for 30 mins followed by addition of p-tyramine as substrate measured over 45 mins by Amplex Red MAO assay relative to control; details: 0.75 h
[9] = biological target: T7, Adenosine receptor A2b (Homo sapiens); assay: Displacement of [3H]PSB-603 from human A2B receptor expressed in CHO cell membrane at 0.3 uM relative to control; format: cell membranes
[10] = biological target: T8, Amine oxidase [flavin-containing] A; assay: Inhibition of recombinant human MAO-A expressed in baculovirus infected BTI insect cells at 10 uM preincubated for 30 mins followed by addition of p-tyramine as substrate measured over 45 mins by Amplex Red MAO assay relative to control; details: 0.75 h
[11] = Thermodynamic solubility of the compound at pH 7.4; format: physicochemical; details: buffer, read-out: Therm_solubility
[12] = Thermodynamic solubility of the compound at pH 4; format: physicochemical; details: buffer, read-out: Therm_solubility
[13] = Thermodynamic solubility of the compound at pH 1; format: physicochemical; details: buffer, read-out: Therm_solubility
[14] = biological target: Adenosine receptor A2a (Rattus norvegicus) (UniProt P30543); assay: Displacement of [3H]MSX from A2A receptor in rat brain striatum membranes at 1 uM measured after 30 mins by liquid scintillation counting method relative to control; format: cell membranes
Chain of Adenosine receptor A2a (Rattus norvegicus) (P30543 whole entry): as the sequence (P30543 whole entry) above

Row | SMILES | Ki (Adenosine receptor A2a) [nM] | Ki (Adenosine receptor A1 [1]) [nM] | IC50 [2] [µM] | Ki (Adenosine receptor A1 [3]) [nM] | Activity [4] [%] | Ki (Adenosine receptor A2b) [nM] | Ki (Adenosine receptor A3) [µM] | Activity [5] [%] | IC50 [6] [µM] | Activity [7] [%] | inhibition at 10 µM [8] [%] | Activity [9] [%] | inhibition at 10 µM [10] [%] | solubility thermodynamic [11] [µg/mL] | solubility thermodynamic [12] [µg/mL] | solubility thermodynamic [13] [µg/mL] | Activity [14] [%]
1 | Cn1c(=O)c2c(nc3n2CCN(CCc2ccc(Cl)cc2C(F)(F)F)C3)n(C)c1=O | 2910 | 138 | 0.425 | 553 | 25 | > 1000 | > 10 | 26 |  |  |  |  |  |  |  |  | 
2 | Cn1c(=O)c2c(nc3n2CCN(CCc2cccs2)C3)n(C)c1=O | 1590 | > 1500 | > 10 |  | 24 | > 300 | > 10 |  | > 10 | 15 | 21 | 17 | 5 |  |  |  | 
3 | Cn1c(=O)c2c(nc3n2CCN([C@H]2CCc4ccccc42)C3)n(C)c1=O | 2480 | > 1500 | > 10 |  | 33 | > 300 | > 10 |  |  | 29 | 22 | 11 |  |  |  |  | 
4 | Cn1c(=O)c2c(nc3n2CCN(CCn2cccc2)C3)n(C)c1=O | > 1000 | > 1500 | > 10 |  | 37 | > 1000 | > 10 | 8 | > 10 | 7 | 19 |  | 14 | 1200 (≈ 3650 µM) | 1500 (≈ 4570 µM) | > 1500 | 8
5 | Cn1c(=O)c2c(nc3n2CCN(C2CCN(Cc4ccccc4)CC2)C3)n(C)c1=O | > 1000 | > 1500 | > 10 |  | 10 | > 1000 | > 10 | 17 |  | 7 | 2 |  |  | 300 (≈ 734 µM) | > 1500 | > 1500 | 5
6 | Cn1c(=O)c2c(nc3n2CCN(CCc2ccccc2F)C3)n(C)c1=O | 5630 | > 1500 |  |  | 40 | > 300 | > 10 |  |  | 24 | 65 | 2 |  |  |  |  | 
7 | Cn1c(=O)c2c(nc3n2CCN(CCc2cccc(Br)c2)C3)n(C)c1=O | 2120 | > 1500 | 3.65 |  | 42 | > 300 | > 10 |  |  | 26 |  | 29 |  | < 0.5 | < 0.5 | 700 (≈ 1670 µM) | 
8 | Cn1c(=O)c2c(nc3n2CCN(CCc2cccc(F)c2)C3)n(C)c1=O | 1500 | > 1500 | > 10 |  | 16 | > 300 | > 10 |  | > 10 | 6 | 35 | 8 | 12 |  |  |  | 
9 | Cn1c(=O)c2c(nc3n2CCN(CCCc2ccccc2)C3)n(C)c1=O | 1840 | > 1500 | > 10 |  | 20 | > 300 | > 10 |  | > 10 | 12 | 14 | 5 | 9 | 80 (≈ 226 µM) |  |  | 
10 | Cn1c(=O)c2c(nc3n2CCN(CCc2ccc(Cl)cc2Cl)C3)n(C)c1=O | 2250 | 416 | 2.45 | 3520 |  | > 1000 | 30.9 | 24 | > 10 |  |  |  | 15 |  |  |  | 
11 | Cn1c(=O)c2c(nc3n2CCN(CCOc2ccccc2F)C3)n(C)c1=O | > 1000 | > 1500 | > 10 |  | 41 | > 1000 | > 10 | 12 |  | 5 | 24 |  |  | < 0.5 | < 0.5 | > 1500 | 23
